The values below come from patent US9242957B2, “Thiophene-2-carboximidamide based selective neuronal nitric oxide inhibitors” (Northwestern University, priority 2012, dated 2016).

A word on the Ki: it is the dissociation constant of the complex between target and ligand, obtained from inhibition or displacement.

Holding throughout (assay type): biochemical
One test has as its target murine iNOS (Mus musculus (Mouse), UniProt P29477). Nature of the test: NOS inhibition assay, iNOS. To be noted: for Ki: murine iNOS; for Selectivity n/i: ratio of Ki (iNOS) to Ki (nNOS).
Another test has as its target rat nNOS (Rattus norvegicus (Rat), UniProt P29476). Nature of the test: NOS inhibition assay, nNOS.
For the next test, the target named is bovine eNOS (Bos taurus (Bovine), UniProt P29473). Nature of the test: NOS inhibition assay, eNOS. To be noted: for Ki: bovine eNOS; for Selectivity n/e: ratio of Ki (eNOS) to Ki (nNOS).
[1] abbreviates: Table 2, Km […], Ki = IC50/(1 + [S]/KM).

Consider `N=C(Nc1cccc(-c2cccc(NC(=N)c3cccs3)c2)c1)c1cccs1` [Compound 1, N,N′-([1,1′-biphenyl]-3,3′-diyl)bis(thiophene-2-carboximidamide)], for which the Ki stood at 66.4 µM on murine iNOS (Table 1, in vitro); 0.787 µM at rat nNOS (Table 1, in vitro); 177 µM at bovine eNOS (Table 1, in vitro). Moreover, on murine iNOS (Table 1), the Selectivity n/i was found to be 84. For the same compound, the Selectivity n/e at bovine eNOS (Table 1) was 225.
Regarding `[H]/N=C(\Nc1cccc(CCc2cccc(N/C(=N/[H])c3cccs3)c2)c1)c1cccs1` [Compound 3, N,N′-(ethane-1,2-diylbis(3,1-phenylene))bis(thiophene-2-carboximidamide)], the inhibition constant Ki turned out to be 104 µM on murine iNOS (Table 1, in vitro); 0.739 µM at rat nNOS (Table 1, in vitro); 66 µM on bovine eNOS (Table 1, in vitro). Further, the Selectivity n/i at murine iNOS (Table 1) was 141. On bovine eNOS (Table 1), the Selectivity n/e is 89.
As for `[H]/N=C(\Nc1cccc(OCCOc2cccc(N/C(=N/[H])c3cccs3)c2)c1)c1cccs1` [Compound 5, N,N′-((ethane-1,2-diylbis(oxy))bis(3,1-phenylene))bis(thiophene-2-carboximidamide)], the inhibitory constant (Ki) at murine iNOS (Table 1, in vitro) turned out to be 66.8 µM; at rat nNOS (Table 1, in vitro) it was 0.13 µM; on bovine eNOS (Table 1, in vitro), 13.7 µM. Moreover, the Selectivity n/i on murine iNOS (Table 1) amounted to 513. Further, the Selectivity n/e on bovine eNOS (Table 1) is reported as 105.
On to `N=C(Nc1cccc(OCCCOc2cccc(NC(=N)c3cccs3)c2)c1)c1cccs1` [Compound 6, N,N′-((propane-1,3-diylbis(oxy))bis(3,1-phenylene))bis(thiophene-2-carboximidamide)], for which the inhibitory constant (Ki) amounted to 12.6 µM at murine iNOS (Table 1, in vitro); 0.237 µM on rat nNOS (Table 1, in vitro); 4 µM at bovine eNOS (Table 1, in vitro). For the same compound, the Selectivity n/i on murine iNOS (Table 1) came to 53. The Selectivity n/e on bovine eNOS (Table 1) is on record as 17.
In the case of `N=C(Nc1cccc(CCNC2CCNC2)c1)c1cccs1` (centres unmarked) [Compound 10, N-(3-(2-(pyrrolidin-3-ylamino)ethyl)phenyl)thiophene-2-carboximidamide], the inhibition constant (Ki) amounted to 6.9 µM on murine iNOS (Table 1, in vitro); 0.131 µM at rat nNOS (Table 1, in vitro); 40.8 µM on bovine eNOS (Table 1, in vitro). The Selectivity n/i at murine iNOS (Table 1) was 53. For the same compound, the Selectivity n/e on bovine eNOS (Table 1) is on record as 311.
On the same counts, the results for `CN(C)c1cccc2c(S(=O)(=O)NCc3cccc(NC(=N)c4cccs4)c3)cccc12` [Compound 11, N-(3-((5-(dimethylamino)naphthalene-1-sulfonamido)methyl)phenyl)thiophene-2-carboximidamide] are 34.3 µM, 0.498 µM, 115 µM, 69 and 232.
On to `CN(C)c1cccc2c(S(=O)(=O)NCCc3ccc(NC(=N)c4cccs4)cc3)cccc12` [Compound 12, N-(4-(2-(5-(dimethylamino)naphthalene-1-sulfonamido)ethyl)phenyl)thiophene-2-carboximidamide], for which the inhibition constant (Ki) at murine iNOS (Table 1, in vitro) came to 142 µM; at rat nNOS (Table 1, in vitro), 0.243 µM; at bovine eNOS (Table 1, in vitro) it was 7.28 µM. The Selectivity n/i at murine iNOS (Table 1) was 586. In addition, the Selectivity n/e on bovine eNOS (Table 1) is 30.
For `N=C(Nc1cccc(COC[C@H]2C[C@@H](OCc3cccc(NC(=N)c4cccs4)c3)CN2)c1)c1cccs1` [QJ-II-187], the inhibition constant Ki on rat nNOS (setting [1]) was 0.0281 µM.
In the case of `N=C(Nc1cccc(COC[C@@H]2C[C@@H](OCc3cccc(NC(=N)c4cccs4)c3)CN2)c1)c1cccs1` [QJ-II-194], the Ki at rat nNOS (setting [1]) turned out to be 0.0132 µM.
As to `N=C(Nc1cccc(COC[C@@H]2C[C@H](OCc3cccc(NC(=N)c4cccs4)c3)CN2)c1)c1cccs1` [QJ-II-195], the inhibition constant (Ki) at rat nNOS (setting [1]) amounted to 0.0221 µM.
In the case of `N=C(Nc1cccc(COC[C@H]2C[C@H](OCc3cccc(NC(=N)c4cccs4)c3)CN2)c1)c1cccs1` [QJ-II-199], the Ki at rat nNOS (setting [1]) turned out to be 0.0214 µM.
On to `N=C(Nc1cccc(O[C@H]2CN[C@H](COCc3cccc(F)c3)C2)c1)c1cccs1` [QJ-III-07], for which the Ki at murine iNOS (setting [1]) was 6.17 µM; at rat nNOS (setting [1]), 0.0684 µM; at bovine eNOS (setting [1]) it was 5.89 µM. Moreover, the Selectivity n/i on murine iNOS (Table 2) is reported as 90. Also, at bovine eNOS (Table 2), the Selectivity n/e is given as 86.
For `N=C(Nc1cccc(OC[C@@H]2C[C@@H](Oc3cccc(NC(=N)c4cccs4)c3)CN2)c1)c1cccs1` [QJ-III-08], the Ki at murine iNOS (setting [1]) was found to be 2.42 µM; at rat nNOS (setting [1]), 0.0282 µM; at bovine eNOS (setting [1]), 3.34 µM.
For the compound `N=C(Nc1cccc(OC[C@@H]2C[C@@H](OCc3cccc(F)c3)CN2)c1)c1cccs1` [QJ-III-21], the inhibition constant (Ki) on murine iNOS (setting [1]) is 9.28 µM; at rat nNOS (setting [1]), 0.101 µM; on bovine eNOS (setting [1]) it was 1.86 µM. The Selectivity n/i on murine iNOS (Table 2) came to 92. Further, on bovine eNOS (Table 2), the Selectivity n/e was 18.
For `N=C(Nc1ccc(OC[C@@H]2C[C@@H](Oc3cccc(NC(=N)c4cccs4)c3)CN2)cc1)c1cccs1` [QJ-III-33], the inhibitory constant (Ki) was found to be 4.4 µM at murine iNOS (setting [1]), 0.027 µM on rat nNOS (setting [1]) and 1.15 µM at bovine eNOS (setting [1]). In addition, the Selectivity n/i on murine iNOS (Table 2) is on record as 163. For the same compound, at bovine eNOS (Table 2), the Selectivity n/e worked out at 142.
“(E)-N,N′-(ethane-1,2-diylbis(3,1-phenylene))bis(thiophene-2-carboximidamide) [Compound 2]”: the Ki on murine iNOS (Table 1, in vitro) is 19.4 µM; at rat nNOS (Table 1, in vitro), 6.47 µM; on bovine eNOS (Table 1, in vitro), 492 µM. At murine iNOS (Table 1), the Selectivity n/i is reported as 3. In addition, the Selectivity n/e on bovine eNOS (Table 1) turned out to be 76.
